Measurements as given in ChEMBL document CHEMBL1124880 (J Med Chem, 1990).

Key:
Rattus norvegicus = species on record: Rattus norvegicus; assay: Minimal effective dose in an rat anti-immobility effect using behavioral despair test; type: functional; details: read-out: MED
Adenosine receptor A1 = target: T1, Adenosine receptor A1 (Rattus norvegicus, UniProt P25099); assay: Binding affinity towards the adenosine A1 receptor in cerebral cortices of Sprague-Dawley male rats using [3H]CHA as radioligand.
T1 sequence (P25099 whole entry): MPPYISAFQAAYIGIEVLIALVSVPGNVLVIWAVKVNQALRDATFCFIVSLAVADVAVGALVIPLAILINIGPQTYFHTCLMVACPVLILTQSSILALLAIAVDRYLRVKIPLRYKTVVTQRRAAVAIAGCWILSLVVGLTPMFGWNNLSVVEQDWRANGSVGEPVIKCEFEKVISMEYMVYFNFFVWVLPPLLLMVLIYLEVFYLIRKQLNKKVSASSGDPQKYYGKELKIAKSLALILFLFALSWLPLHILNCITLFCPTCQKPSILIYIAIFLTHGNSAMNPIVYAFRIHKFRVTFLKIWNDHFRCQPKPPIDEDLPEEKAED

Adenosine A2 receptor = Adenosine A2 receptor (Rattus norvegicus, UniProt P29276+P30543)

Compound | minimal effective dose (Rattus norvegicus) [mg/kg] | IC50 (Adenosine receptor A1) [µM] | IC50 (Adenosine A2 receptor)
CCc1nnc2c(N(CC)CC)nc3cc(Cl)ccc3n12 | 10 |  | 
CCN(CC)c1nc2ccc(F)cc2n2c(C(F)(F)F)nnc12 | > 32 |  | 
CC(C)(C)Nc1nc2ccccc2n2cnnc12 | > 32 | 19 | 
CC(=O)Nc1nc2cc(F)ccc2n2cnnc12 | ≤ 32 |  | 
CCc1nnc2c(N3CCCC3)nc3ccccc3n12 | > 3.2 | 10 | 
CCN(CC)c1nc2ccccc2n2c(-c3ccccc3)nnc12 | 1 |  | 
Cc1nnc2c(NC(C)C)nc3ccccc3n12 | 10 | 0.85 | 
Clc1ccc2nc(N3CCNCC3)c3nncn3c2c1 | > 32 |  | 
CCc1nnc2c(N3CCCCC3)nc3ccccc3n12 | 10 | 3.5 | 
CCNc1nc2ccc(F)cc2n2c(CC)nnc12 | 3.2 | 0.7 | 
CCNc1nc2ccc(Cl)cc2n2c(C(F)(F)F)nnc12 | ≤ 32 |  | 
CN1CCN(c2nc3ccccc3n3cnnc23)CC1 | > 32 | > 100 | 
CCc1nnc2c(NC(C)=O)nc3cc(Cl)ccc3n12 | 3.2 |  | 
CCNc1nc2ccccc2n2c(C(C)C)nnc12 | ≤ 32 | 2.2 | 
CC(C)Nc1nc2ccccc2n2c(C(F)(F)F)nnc12 | < 10 | 0.17 | 4.1 µM
CCc1nnc2c(N3CCOCC3)nc3ccccc3n12 | > 10 | 28 | 
O=C1CCCN1c1nc2ccccc2n2cnnc12 | > 32 | > 100 | 
Cc1nnc2c(N3CCCC3)nc3ccccc3n12 | > 32 | 49 | 
CCc1nnc2c(N(C)C)nc3cc(Cl)c(Cl)cc3n12 | 3.2 |  | 
CCc1nnc2c(NC(=O)C(C)(C)C)nc3ccc(Cl)cc3n12 | ≤ 32 |  | 
c1ccc2c(c1)nc(N1CCCCC1)c1nncn12 | > 32 | 100 | 
CCc1nnc2c(N(C(C)=O)C(C)=O)nc3ccccc3n12 | 3.2 | 9.3 | 
CC(C)Nc1nc2cc(F)c(F)cc2n2cnnc12 | ≤ 3.2 | 1.9 | 
CCN(CC)c1nc2ccccc2n2c(C(F)(F)F)nnc12 | ≤ 32 |  | 
CCN(CC)c1nc2cc(Br)c(Br)cc2n2cnnc12 | > 32 |  | 

Compound | minimal effective dose (Rattus norvegicus) [mg/kg] | IC50 (Adenosine receptor A1) [µM] | IC50 (Adenosine A2 receptor)
CCCN(CCC)c1nc2ccccc2n2cnnc12 | > 32 | ≥ 100 | 
CC(=O)N(c1nc2cc(Cl)c(Cl)cc2n2cnnc12)C(C)C | > 32 |  | 
CCc1nnc2c(N(C)C)nc3cc(Cl)ccc3n12 | 10 |  | 
CCc1nnc2c(NC(C)=O)nc3cc(F)ccc3n12 | ≤ 3.2 |  | 
CC(=O)Nc1nc2ccc(Cl)cc2n2c(C(F)(F)F)nnc12 | ≤ 3.2 | 0.63 | 
CCc1nnc2c(N3CCNCC3)nc3cc(Cl)c(Cl)cc3n12 | ≤ 32 |  | 
CCc1nnc2c(NC(C)=O)nc3cc(OC)ccc3n12 | > 32 |  | 
CC(=O)N(c1nc2ccc(Cl)cc2n2cnnc12)C(C)C | ≤ 32 |  | 
CCC(=O)Nc1nc2ccc(Cl)cc2n2c(CC)nnc12 | ≤ 3.2 |  | 
CCCc1nnc2c(N(CC)CC)nc3ccccc3n12 | ≤ 32 |  | 
CC(=O)Nc1nc2ccc(Cl)cc2n2c(C)nnc12 | 3.2 |  | 
CCNc1nc2ccc(F)cc2n2c(C(F)(F)F)nnc12 | 3.2 | 0.23 | 14 µM
CCc1nnc2c(N(CC)C(C)=O)nc3ccccc3n12 | ≤ 32 |  | 
CC(=O)N(C(C)=O)c1nc2ccc(Cl)cc2n2cnnc12 | ≤ 32 |  | 
CCN(CC)c1nc2ccccc2n2c(C(C)C)nnc12 | ≤ 32 | 19 | 
CCN(CC)c1nc2ccc(F)cc2n2cnnc12 | 3.2 | > 10 | 
CCNc1nc2cc(F)ccc2n2cnnc12 | 32 | 11 | 26 µM
COc1ccc2c(c1)nc(NC(C)C)c1nncn12 | > 32 |  | 
CCNc1nc2cc(F)c(F)cc2n2cnnc12 | 3.2 | 4.7 | 
CCc1nnc2c(N(CC)CC)nc3ccc(OC)cc3n12 | ≤ 32 |  | 
CC(C)Nc1nc2ccc(F)cc2n2c(O)nnc12 | > 32 | 0.73 | 3.5 µM
CC(=O)Nc1nc2ccccc2n2cnnc12 | ≤ 32 |  | 
CCNc1nc2ccc(F)cc2n2cnnc12 | 3.2 | 3.2 | 17 µM
CCN(CC)c1nc2ccccc2n2c(C)nnc12 | 3.2 | > 10 | 
Cc1nnc2c(NC(C)C)nc3ccc(Cl)cc3n12 | 3.2 | 0.1 | 

Compound | minimal effective dose (Rattus norvegicus) [mg/kg] | IC50 (Adenosine receptor A1) [µM] | IC50 (Adenosine A2 receptor)
CCNc1nc2cc(F)ccc2n2c(CC)nnc12 | ≤ 32 |  | 
CC(=O)Nc1nc2ccc(F)cc2n2cnnc12 | ≤ 32 |  | 
CN(C)c1nc2ccc(F)cc2n2cnnc12 | ≤ 32 |  | 
Cc1nnc2c(N)nc3ccc(Cl)cc3n12 | ≤ 32 | 0.35 | 
CCNc1nc2ccc(Cl)cc2n2c(-c3ccccc3)nnc12 | > 32 |  | 
CCN(CC)c1nc2ccc(Cl)cc2n2c(C)nnc12 | ≤ 32 | 17 | 
CCNc1nc2ccc(Cl)cc2n2c(CC)nnc12 | 3.2 |  | 
CC(C)Nc1nc2cc(Cl)c(Cl)cc2n2cnnc12 | 3.2 | 1 | 
CC(=O)N(C(C)=O)c1nc2ccccc2n2cnnc12 | ≤ 32 |  | 
CCc1nnc2c(NC(C)=O)nc3ccccc3n12 | 1 |  | 
CCc1nnc2c(N(CC)CC)nc3cc(F)c(F)cc3n12 | 3.2 |  | 
CCc1nnc2c(NC(C)=O)nc3ccc(F)cc3n12 | ≤ 3.2 |  | 
CCN(CC)c1nc2ccc(Cl)cc2n2c(-c3ccccc3)nnc12 | > 32 |  | 
c1ccc2c(c1)nc(N1CCCC1)c1nncn12 | > 32 | 50 | 
CCc1nnc2c(N3CCCC3=O)nc3ccccc3n12 | > 32 |  | 
CCc1nnc2c(NC)nc3ccccc3n12 | 3.2 | 6 | 
CCc1nnc2c(NC(C)=O)nc3cc(Cl)c(Cl)cc3n12 | ≤ 3.2 | 1.3 | 
CCc1nnc2c(NC(C)=O)nc3ccc(Cl)cc3n12 | 1 | 1.8 | 
CCc1nnc2c(N(CC)CC)nc3ccc(Cl)cc3n12 | ≤ 32 | 6.5 | 
CCCC(=O)Nc1nc2ccc(Cl)cc2n2c(CC)nnc12 | ≤ 32 |  | 
Nc1nc2cc(Cl)ccc2n2cnnc12 | ≤ 32 | 1.2 | 0.21 µM
CCc1nnc2c(N(CC)CC)nc3ccc(F)cc3n12 | 10 |  | 
CCc1nnc2c(NCCO)nc3ccccc3n12 | ≤ 32 | 1.6 | 
Oc1cccc(C2=CSC3=Nc4ccccc4CN23)c1 |  | 18 | 0.53 µM
CCc1nnc2c(N(C(C)=O)C(C)C)nc3ccc(Cl)cc3n12 | 10 |  | 

Compound | minimal effective dose (Rattus norvegicus) [mg/kg] | IC50 (Adenosine receptor A1) [µM] | IC50 (Adenosine A2 receptor)
COc1ccc2c(c1)nc(NC(C)=O)c1nncn12 | ≤ 32 |  | 
CCNc1nc2ccccc2n2c(C(F)(F)F)nnc12 | 32 |  | 
CCc1nnc2c(N(CC)CC)nc3cc(Cl)c(Cl)cc3n12 | 3.2 | 100 | 
CN(C)c1nc2ccccc2n2cnnc12 | ≤ 32 | 59 | 
Nc1nc2ccccc2n2cnnc12 | 3.2 | 4.6 | 0.4 µM
CCc1nnc2c(NC(C)C)nc3ccc(F)cc3n12 | 3.2 | 0.18 | 3.9 µM
CCN(CC)c1nc2ccc(OC)cc2n2cnnc12 | > 32 |  | 
CNc1nc2ccccc2n2cnnc12 | 32 | 100 | 
CCN(CC)c1nc2cc(Cl)ccc2n2cnnc12 | 32 |  | 
CCc1nnc2c(N)nc3cc(Cl)ccc3n12 | ≤ 3.2 | 0.075 | 0.029 µM
CCN(CC)c1nc2cc(F)c(F)cc2n2cnnc12 | 3.2 | 5 | 
c1ccc2c(c1)nc(N1CCOCC1)c1nncn12 | > 32 |  | 
COc1nnc2c(NC(C)C)nc3ccc(Cl)cc3n12 | ≤ 32 |  | 
Nc1nc2ccc(F)cc2n2c(O)nnc12 | 10 | 0.84 | 0.7 µM
Nc1nc2ccc(Cl)cc2n2cnnc12 | 10 | 3.4 | >= 1 uM
CCc1nnc2c(NC3CCCCC3)nc3ccc(Cl)cc3n12 | > 32 | 0.044 | 4.1 µM
Nc1nc2cc(Cl)c(Cl)cc2n2cnnc12 | > 32 |  | 
CC(=O)Nc1nc2ccc(F)cc2n2c(C(F)(F)F)nnc12 | ≤ 3.2 | 3.6 | 
Nc1nc2cc(F)ccc2n2cnnc12 | ≤ 32 | 6.1 | 0.56 µM
CC(CO)Nc1nc2ccc(F)cc2n2cnnc12 (stereo not drawn) | > 32 |  | 
CCNc1nc2ccc(OC)cc2n2c(CC)nnc12 | > 32 | 0.71 | 4.5 µM
CC(N)Cc1ccccc1.O=S(=O)(O)O (stereo not drawn) [AMPHETAMINE SULFATE] | < 1 |  | 
Nc1nc2ccc(Cl)cc2c2nc(-c3ccco3)nn12 [CGS-15943] | < 32 |  | 0.0028 µM
CN(C)CCCN1c2ccccc2CCc2ccccc21 [IMIPRAMINE] | > 17.8 |  | 
